Several values for one entry are separate records, joined by “and”; a condition that tells them apart may be missing. Equal entries are not always repeated.
Key:
[1] = system: heart of neck-ligated Carausius morosus; design: method as in Marco et al., 2018; conditions: ref Marco et al., 2018, cited from earlier work
Periplaneta americana = system: Periplaneta americana; design: method as in Gäde, 1990; conditions: in vivo assay, P. americana; ref Gäde, 1990; cited from earlier work
Blaberus discoidalis = system: Blaberus discoidalis; design: method as in Hayes and Keeley, 1990; conditions: in vivo assay, cockroach B. discoidalis; ref Hayes and Keeley, 1990; cited from earlier work
[2] = system: heart of neck-ligated Carausius morosus; assay: Semi-exposed heart bioassay (heart beat rate); type: in vivo
Procedure: The semi-exposed heart bioassay was carried out as described ([Marco et al., 2018]) with adult stick insects between 1 and 2 months old that were ligated at the neck. Briefly, a ventral incision of the abdomen exposed the ventral cavity with the internal organs; a few drops of stick insect saline (pH 6.6; 15 mM NaCl, 18 mM KCl, 7.5 mM CaCl2, 2 mM HEPES, 50 mM MgCl2, and 184 mM glucose according to [Ejaz and Lange, 2008]) were added to the exposed part. The semi-isolated heart preparation was viewed with a dissecting microscope (12-fold magnification), and the number of observed heart beats (contractions of the heart muscle) was counted during a fixed period using a manual tally counter and a timer. Once the heart had stabilized, saline was replaced with the test solution. For this the peptide stock solution of 5 pmol μl^–1 was diluted with stick insect saline to the desired concentration and a final volume of 150 μl was used for each test.
Heart rates under normal saline served as controls. The change in heart rate after the application of the test solution was calculated as an average of the first four counts and was compared to the average heart rates counted in saline before the application of the test solution. This comparison of change in heart rates was done for all the peptides tested.

Manduca sexta = system: Manduca sexta; design: method as in Fox and Reynolds, 1991; Ziegler et al., 1991; conditions: in vivo assay, ref Fox and Reynolds, 1991, Ziegler et al.; cited from earlier work
Locusta migratoria = system: Locusta migratoria; design: method as in Gäde, 1990; conditions: in vivo assay, L. migratoria; ref Gäde, 1990; cited from earlier work
[3] = system: ligated 6th instar Indian stick insects (Carausius morosus); assay: Carbohydrate-mobilization (hypertrehalosemic) in vivo assay
Procedure: Sixth instar nymphs that were 1–2 days before molting were neck-ligated and used in the hypertrehalosemic in vivo assay as described in detail by [Gäde and Lohr (1982)]. Stock peptide solutions (5 pmol μl^–1) were diluted with distilled water to the desired concentration in 10 μl, which was injected into the stick insect nymphs.
In the first series of experiments, various doses of synthetic Carmo-HrTH-II and corpora cardiaca (CC) extract of C. morosus were used to determine the maximal hypertrehalosemic response of C. morosus. Hemolymph samples were taken from 17 to 18 days old 6th instar nymphs 2 h after they were neck-ligated and then 90 min after either CC extract or synthetic Carmo-HrTH-II was injected. Ligated nymphs injected with distilled water served as controls for handling stress. As depicted in Figures 1A,B, various doses of both Carmo-HrTH-II and CC extract increased the level of carbohydrates in the hemolymph in a dose-dependent manner. A dose of 0.04 pmol of synthetic Carmo-HrTH-II and the equivalent of 0.005 pairs of corpora cardiaca (pCC) were sufficient to give significant increases in hemolymph carbohydrates (p < 0.05). […] Doses of 0.1–0.5 pCC gave an average increase of 5.6 ± 0.6 mg carbohydrates ml^–1 hemolymph (Figure 1B); again, statistical analyses reveal no significant difference between the effect of these doses (p > 0.05).
Based on these pilot experiments, we selected a dose of 20 pmol for testing the analogs of Carmo-HrTH-II since such a dose of our lead compound, Carmo-HrTH-II had achieved maximal hypertrehalosemic activity.

Row | Molecule | Effect on contraction of the heart ([1]; C. morosus heart, dose-dependent) | Activity relative to the endogenous octapeptides Peram-CAH-I and -II (Periplaneta americana) | Fold less active than the endogenous Bladi-HrTH (Blaberus discoidalis) | % Activity relative to the effect of Carmo-HrTH-II (myotropic) ([2]; 20 pmol peptide in 150 μl, heart rate increase relative to Carmo-HrTH-II = 100, NS = no significant increase) | Heart rate, Post-application ([2]; after application of 20 pmol peptide in 150 μl saline, average of first four counts, neck-ligated stick insects) | Heart rate, Pre-application ([2]; in saline before application, neck-ligated stick insects, semi-exposed heart) | Heart rate, Difference ([2]; post- minus pre-application, 20 pmol peptide in 150 μl) | Activity relative to the endogenous nonapeptide Manse-AKH (Manduca sexta) | Activity relative to the endogenous decapeptide Locmi-AKH-I (Locusta migratoria) | % Activity relative to the effect of Carmo-HrTH-II (metabolic) ([3]; 20 pmol peptide injected, carbohydrate increase relative to Carmo-HrTH-II = 100, NS = no significant increase) | Hemolymph carbohydrates, 90 min ([3]; 90 min after injection of 20 pmol peptide in 10 μl, neck-ligated 6th instar nymphs) | Hemolymph carbohydrates, Difference ([3]; 90 min minus 0 min, 20 pmol peptide in 10 μl injected, neck-ligated 6th instar nymphs) | Hemolymph carbohydrates, 0 min ([3]; before injection (0 min), 2 h after neck ligation, group later given 20 pmol peptide in 10 μl, 6th instar nymphs) | Average increase of hemolymph carbohydrates ([3]; doses of 7.5–60 pmol (plateau, no significant difference between doses), 90 min) | Dose sufficient to give significant increases in hemolymph carbohydrates ([3]; synthetic peptide injected, 17-18 days old ligated 6th instar nymphs, 90 min, p < 0.05) | Doses that increased the heart beat rate significantly and maximally ([1]; ligated stick insects, synthetic peptide)
1 | NCC(O)c1ccc(O)cc1 (stereo not shown) [octopamine] | inhibits the contraction of the heart | – | – | – | – | – | – | – | – | – | – | – | – | – | – | –
2 | pGlu-Leu-Thr-Phe-Thr-Pro-Asn-Trp-Gly-Thr amide [Carmo-HrTH-II, reference compound] | – | more or less as active | more than 300 fold | 100% | 53 ± 5 beats min^−1 | 41 beats min^−1 and 41 ± 4 beats min^−1 | 12 ± 5 beats min^−1 | as, or slightly more active than the endogenous nonapeptide Manse-AKH | only slightly less active | 100% | 14.9 ± 1.9 mg/mL | 5.4 ± 1.1 mg/mL | 9.4 ± 1.5 mg/mL | 5.2 ± 0.4 mg ml^–1 | 0.04 pmol | above 6.67 × 10^–8 M

Source: PMC7198766, “Structure-Activity Studies on the Hypertrehalosemic Hormone II of the Stick Insect Carausius morosus (Phasmatodea): Carbohydrate-Mobilization and Cardio-Stimulatory Activities” (Frontiers in Physiology, 2020)
